Tests used:
[1] = test system: cyclin D1; assay: Western blotting for expression of cyclin D1 (test (c)); format: cell-based, human; conditions: positive in 184B5, 184B5/HER cells; 24 h; Western blot
Experimental: Cyclin D1 is a protein that is important in regulating cell proliferation and is described in Ortega, S., et al, Biochimica et Biophysica Acta 1602, 73-87, (2002), the whole of which is incorporated by reference. […] Effects on expression of cyclin D1 was investigated in 184B5, 184B5/HER, HCA7, HCT116, SKBR3 and BT474 cells. The expression was assessed in cells after treatment with test compound or vehicle using 5×10^4 cells for 24 hours. Western blotting technique was used as follows to assess the expression levels of cyclin D1 in cells treated with the test compound and compared to levels in cells treated with vehicle alone. Cell lysates were prepared by treating cells with lysis buffer as described above. […] The resolved proteins were transferred onto nitrocellulose sheets. The nitrocellulose membrane was then incubated with anti-cyclin D1 antiserum. Secondary antibody to IgG conjugated to horseradish peroxidase was used. The various antisera were purchased from Santa Cruz Biotechnology, Inc., CA. The blots were probed with the Renaissance Western blot detection system according to the manufacturer's instructions (PerkinElmer Life Sciences, Boston, Mass.).

[2] = test system: PPRE luciferase; assay: PPRE luciferase activation, transient transfection reporter assay (test (a)); format: cell-based, human; conditions: positive in 184B5, 184B5/HER, HCA7, HCT116, SKBR3 and BT474 cells; 24 h treatment
Description: We turn now to criterion (a), that is activation of PPRE luciferase by at least 100%. PPRE-luciferase refers to a DNA construct containing the peroxisome proliferator activated receptor (PPAR) binding element joined to luciferase. Cells are transfected with PPRE-luciferase DNA. Ligands of PPAR induce luciferase activity. The ability of a test compound to stimulate PPRE-luciferase signifies that the test compound activates PPAR-mediated gene transcription. PPRE means peroxisome proliferator response element and the method by which PPRE-luciferase is constructed is described in Schoonjans, K., et al, J. Biol. Chem. 270, No. 33, 19269-19276 (Aug. 18, 1995). Use of PPRE-luciferase in a transient transfection to measure increase in promoter activity is disclosed in Subbaramaiah, K. et al, J. Biol. Chem. 270, No. 15, 12440-12448 (Apr. 13, […]).
For each well, 1.8 μg of PPRE3-tk-luciferase construct plasmid DNA (described in Forman, B. M., et al, Cell 83, 803 (1995)) plus 0.2 μg of pSV-β-galactosidase were introduced into cells using 8 μg of LipofectAMINE as per the manufacturer's instructions (Invitrogen, CA). After 7 h of incubation, the medium was replaced with basal medium. After transfection, cells were treated with test compound for 24 h. Reporter activities which include luciferase and β-galactosidase were measured in cellular extract 24 h later. Six wells were used for each of the conditions. Luciferase activity represents data that have been normalized with β-galactosidase.
The luciferase assay was performed as per the BD Pharmingen assay reagents. The Enhanced Luciferase Assay Kit provides a firefly luciferase substrate formulation (Substrates A and B) and cell lysis buffer intended for use in measuring luciferase expressed by transfected cells. Media from cell culture plates was removed and rinsed twice with phosphate buffered saline. Enough 1X cell lysis buffer was added to cover cells and incubated at room temperature for 15-20 min. Cells were dislodged by scraping and transferred to microcentrifuge tubes. […] 20-100 μl cell extract was placed into an assay cuvette. One automatic injector type luminometer is used for assay. Manually 100 μl of Substrate A was added to the assay cuvette and automatically 100 μl of Substrate B was injected. Measurements were performed using a luminometer, for a measurement time of 10 seconds.
The β-galactosidase assay was performed as follows:
50 μl of cell lysate from above was incubated with 50 μl of o-nitrophenyl-β-D-galactoside (ONPG; 4 mg/mL) in Z buffer, (Na2HPO4.7H2O (0.06M), NaH2PO4.H2O (0.04M), 1M KCl (0.01M), 1M MgSO4 (0.001M), β-mercaptoethanol (BME) (0.05M) pH 7.0). The reaction was stopped after sufficient yellow color has developed. The yellow color developed is measured at A420 […].

[3] = test system: HER-2/neu; assay: Western blotting for expression of HER-2/neu (test (b)); format: cell-based, human; conditions: positive in 184B5/HER, BT474 and SKBR3 cells; 24 h; Western blot
Description: We turn now to the criterion (b), that is at least 50% decrease in level of or 50% downregulation of expression of Class I family of receptors tyrosine kinase. The Class I family of receptors tyrosine kinase is described in Reese, M. D., et al Stem Cells 15, pages 1-8 (1997), the whole of which in incorporated herein by reference. Members of the family include HER-2/neu, HER-3, HER-4 and epidermal growth factor receptor (EGFR) and are single-chain membrane spanning proteins which have significant homology to one another including about 80% amino acid identity in the tyrosine kinase domain.
HER-2/neu (erbB-2) gene product is a 185-kDA transmembrane receptor tyrosine kinase that is described in some detail in said Reese et al publication and overexpression thereof has been associated with tumor growth in several kinds of cancer.
To evaluate the expression of Class I family of receptors tyrosine kinase (EGFR, HER-2/neu), Western blotting can be performed. Antibodies for EGFR and HER-2/neu can be obtained from Santa Cruz Biotechnology, Inc.
Expression of EGFR (performed in 184B5, 184B5/HER, 1483, LNCaP, HeLa and CaSki cells)and HER-2/neu (performed in 184B5/HER, SKBR3 and BT474 cells) was assessed in cells after treatment with test compound for 24 hours. 5×10^6 cells were used for the treatment. Western blotting technique was used to assess the expression levels in cells treated with the test compound compared to vehicle alone. Western blotting was carried out as follows:
Cell lysates were prepared by treating cells with lysis buffer (150 mM NaCl, 100 mM Tris (pH 8.0), 1% Tween 20, 50 mM diethyldithiocarbamate, 1 mM EDTA, 1 mM phenylmethylsulfonyl fluoride, 10 μg/ml aprotinin, 10 μg/ml trypsin inhibitor and 10 μg/ml leupeptin). Lysates were sonicated for 20 s on ice and centrifuged at 10,000×g for 10 min to sediment the particulate material. The protein concentration of the supernatant was measured by the method of Lowry, O. H., et al., J. Biol. Chem. 193, 265-275 (195 1). SDS/PAGE was performed under reducing conditions on 10% polyacrylamide gels as described by Laemmli, U.K., Nature (Lond.) 227, 680-685 (1970). The resolved proteins were transferred onto nitrocellulose sheets as detailed by Towbin, H. et al., Proc. Natl. Acad. Sci. USA 76, 4350-4354 (1979). The nitrocellulose membrane was then incubated with anti-EGFR antiserum or anti-HER-2/neu antiserum. Secondary antibody to IgG conjugated to horseradish peroxidase was used. The various antisera were purchased from Santa Cruz Biotechnology, Inc., CA. The blots were probed with the Renaissance Western blot detection system according to the manufacturer's instructions (PerkinElmer Life Sciences, Boston, Mass.).

[4] = test system: HPV16 oncoproteins E6 and E7; assay: Western and Northern blotting for HPV16 oncoproteins E6 and E7 (test (d)); format: cell-based, human papillomavirus; conditions: positive in CaSki and SiHa cells
Experimental: We turn now to the criterion (d), that is at least 50% downregulation of expression of HPV16 oncoproteins E6 and E7.
Protein E6 and E7 which are expressed by HPV16 are believed to play a major role in carcinogenesis.
Western blotting and Northern blotting techniques were used to evaluate the expression of HPV E6 and E7 proteins. The cell lines used for the study were CaSKi and SiHa. The cells were treated with the test compound and cell lysate was obtained as described above and subjected to Western blotting analysis. The Western blotting analysis was performed as described above except anti-HPV 16 E7 antibody was used to probe the blot. The antibody was obtained from Santa Cruz Biotechnology, Inc. CA. For Northern blotting, total cellular RNA was isolated from cell monolayers using an RNA isolation kit from QIAGEN Inc. after treatment with the test compound. 10 μg of total cellular RNA per lane were electrophoresed in a formaldehyde-containing 1.2% agarose gel and transferred to nylon-supported membranes. After baking, membranes were prehybridized overnight in a solution containing 50% formamide, 5×sodium chloride-sodium phosphate-EDTA buffer (SSPE), 5×Denhardt's solution, 0.1% SDS and 100 μg/ml single-stranded salmon sperm DNA and then hybridized for 12 h at 42° C. with radiolabeled cDNA probes for human HPV16 E6 or E7 cDNAs and 18S rRNA. E6 and E7 (as described in Woodworth, C. D., Cancer Res. 16, 4397-4402 (2000)) and 18S rRNA probes were labeled with [^32P]-CTP by random priming. After hybridization, membranes were washed twice for 20 min at room temperature in 2×SSPE-0.1% SDS, twice for 20 min in the same solution at 55° C., and twice for 20 min in 0.1×SSPE-0.1% SDS at 55° C. Washed membranes were then subjected to autoradiography.

[5] = test system: PTEN; assay: Western and Northern blotting for expression of PTEN (test (e)); format: cell-based, human; conditions: positive in 184B5, 184B5/HER, HCA7, HCT116, SKBR3 and BT474 cells
Experimental: We turn now to criterion (e), i.e., at least 50% increase in expression of PTEN.
PTEN is a tumor suppressor that inhibits cell proliferation and induces programmed cell death. PTEN (also know as MMAC-1 or TEP-1) is described in Yamada, K. M., et al, Journal of Cell Science 114, 2375-2382, the whole of which is incorporated herein by reference.
Western blotting and Northern blotting techniques were used to evaluate the expression of PTEN. The expression of PTEN was evaluated in HCA7, HCT116, SKBR3, 184B5/HER, 184B5 and BT474 cells. 5×10^6cells were used to treat either vehicle alone or the test compound. The Western blotting analysis was performed as described above except anti-PTEN antibody was used to probe the blot. The antibody was obtained from Santa Cruz Biotechnology, Inc. CA. Northern blotting for PTEN was performed as described above and cDNA for PTEN as described in Tamura, M., et al, Science 5; 280 (5369):1614-1617 (1998), was used as a probe.

[6] = test system: tcf/lef/β-catenin-mediated promoter activation; assay: TOPflash/FOPflash reporter assay for tcf/lef/β-catenin-mediated promoter activation (test (f)); format: cell-based, human; conditions: positive in 184B5, 184B5/HER, HCA7, HCT116, SKBR3 and BT474 cells; 24 h
Description: Tcf/lef/β-catenin is a transcription factor complex that has been implicated in the regulation of genes involved in carcinogenesis. Increased tcf/lef/β-catenin-mediated gene expression has been linked to pathogenesis of colon cancer. Tcf/lef/β-catenin is described in Barker, N., et al, Adv. Cancer Res. 77, 1-24 (2000), the whole of which is incorporated herein by reference.
Cells (cell lines were 184B5, 184B5/HER, HCA7, HCT116, SKBR3 and BT474) were split into 6 well dishes and the next day were transiently transfected using 8 μg of LipofectAMlNE as per the manufacturer's instructions (Invitrogen, CA). 1.8 μg/dish of the wildtype Tcf/Lef reporter plasmid TOP flash or the mutant plasmid FOP flash was transfected into the cells and 0.2 μg of pSV-β-galactosidase. FOPflash differs from TOPflash by the mutation of its Tcf binding sites and serves to differentiate Tef/-catenin-mediated signaling from background (Upstate Biotechnology, Inc.). Cells were incubated overnight and were treated for 24 hours with either vehicle or test compound. Luciferase activity in the extracts was measured as described above and was corrected for background by subtraction of FOP-FLASH values from corresponding TOP-FLASH values.

With `COc1ccc2c(c1)c(CC(=O)NCCc1ccccc1)c(C)n2C(=O)c1ccc(Cl)cc1` [Indomethacin Analog 2, N-(2-phenylethyl)-indomethacin amide] the “Test (c) at least 50% downregulation of expression of cyclin D1” value [1] was “+ (A plus sign in the table indicates a positive result, that is meeting the test for each cell line as indicated above as providing a positive result)”, the “Test (a) activation of PPRE luciferase by at least 100%” value (“Test (a) activation … at least 100%” for short) [2] was “+ (A plus sign in the table indicates a positive result, that is meeting the test for each cell line as indicated above as providing a positive result)” and the “Test (b) HER-2/neu: at least 50% decrease in level of or 50% downregulation of expression” value [3] was “+ (A plus sign in the table indicates a positive result, that is meeting the test for each cell line as indicated above as providing a positive result)”. For the same compound, the “Test (d) at least 50% downregulation of expression of HPV16 oncoproteins E6 and E7” value (“Test (d) at least 50% downregulation” below) [4] was “+ (A plus sign in the table indicates a positive result, that is meeting the test for each cell line as indicated above as providing a positive result)”.

In the case of `COc1ccc2c(c1)c(CC(=O)Nc1cccnc1)c(C)n2C(=O)c1ccc(Cl)cc1` [Indomethacin Analog 4, N-(3-pyridyl)-indomethacin amide], the “Test (a) activation … at least 100%” value [2] is reported as “+ (A plus sign in the table indicates a positive result, that is meeting the test for each cell line as indicated above as providing a positive result)”, the “Test (e) at least 50% increase in expression of PTEN” value [5] is reported as “+ (A plus sign in the table indicates a positive result, that is meeting the test for each cell line as indicated above as providing a positive result)” and the “Test (d) at least 50% downregulation” value [4] is reported as “+ (A plus sign in the table indicates a positive result, that is meeting the test for each cell line as indicated above as providing a positive result)”. For the same compound, the “Test (f) at least 50% inhibition of tcf/lef/β-catenin-mediated promoter activation” value [6] was “+ (A plus sign in the table indicates a positive result, that is meeting the test for each cell line as indicated above as providing a positive result)”.

For “1-(p-chlorobenzoyl)-5-methoxy-2-methyl-1H-indole-3-octylacetamide [Indomethacin Analog 6]”, the “Test (a) activation … at least 100%” value [2] was “+ (A plus sign in the table indicates a positive result, that is meeting the test for each cell line as indicated above as providing a positive result)” and the “Test (d) at least 50% downregulation” value [4] was “+ (A plus sign in the table indicates a positive result, that is meeting the test for each cell line as indicated above as providing a positive result)”.
